Results: patent US20110250135A1, “Piperazine Derivatives for Binding and Imaging Amyloid Plaques and Their Use” (Bayer Schering Pharma Aktiengesellschaft, priority 2008, published 2011)

Tests used:
[1] = Biodistribution: organ distribution of F-18 signal in mice; assay type: in vivo, male NMRI mice; details: for Organ distribution of F-18 signal, intestine: intestine (with content); for Organ distribution of F-18 signal, stomach: stomach (without content)
Method: Biodistribution and excretion studies were performed in male NMRI mice (body weight app. 30g; 3 animals per time point). The animals were kept under normal laboratory conditions at a temperature of 22±2° C. and a dark/light rhythm of 12 hours. Food and water were provided ad libitium. During an acclimation period of at least 3 days before the beginning of the study animals were clinically examined to ascertain the absence of abnormal clinical signs. At 2, 5, 30, 60, 240 min post intravenous injection via the tail vein of ca. 150 kBq in 100 μl of the test compound, urine and feces were quantitatively collected. At the same time points, animals were sacrificed by decapitation and under isoflurane anaesthesia and the following organs and tissues were removed for the determination of radioactivity using a gamma-counter: spleen, liver, kidney, lung, femur, heart, brain, fat, thyroid, muscle, skin, blood, tail, stomach (without content), testicle, intestine (with content), pancreas, adrenals, and the remaining body. For analysis the decay corrected percentage of the injected dose per tissue weight (% ID/g±standard deviation) was calculated.

[2] = biological target: T1, Aβ plaques (Homo sapiens, UniProt P05067); assay: Autoradiographical analysis of binding to cryosections from cortex of AD patients and controls; details: F-18 labeled compound; Alzheimer's disease patients (AD) vs controls without Aβ plaques
T1 construct: controls without Aβ plaques; from tissue; host or cells: frontal lobe / cortex sections (frozen and paraffin) from AD patients, FTD patients and age-matched controls
From the text: Fresh frozen as well as paraffin embedded sections of the frontal lobe from Alzheimer's dementia patients, frontotemporal dementia patients and age matched controls were used for the study. Frozen sections, sliced at 18 μm thickness on a cryostate (Leica, Germany) and paraffin sections, sliced on a sliding microtom (Leica) at a thickness of 6 μm, were mounted onto glass slides (Superfrost Plus, Fa.Menzel, Braunschweig Germany). Frozen sections were allowed to adhere to the slides for several nights at −20° C. The paraffin sections were deparaffinized using routine histological methods. For binding studies sections were incubated with the F-18 labeled test compound at 10 Bq/μl diluted in 25 mM Hepes buffer, pH 7.4, 0.1% (BSA) (200-300 μl/slide) for 1.5 hour at room temperature in a humidified chamber. For blocking experiments a 1000-fold access of the unlabeled test substance was added to the incubation mixture. After hybridization, sections were washed four times with Hepes buffer, 0.1% BSA (or alternatively two times with 40% ethanol) and finally dipped two times into dest. water for 10 sec. The air-dried sections were exposed to imaging plates and signals were detected by a phosphoimager device (Fuji BAS5000).

T1 sequence (P05067 672-713 limits assumed): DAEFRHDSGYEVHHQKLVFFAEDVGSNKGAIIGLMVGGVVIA

Structure (SMILES): O=C(NCC(=O)N1CCN(c2ccc(OCc3ccccc3)cc2)CC1)c1cccc(OCC[18F])c1 [Example 3g, N-{2-[4-(4-Benzyloxy-phenyl)-piperazin-1-yl]-2-oxo-ethyl}-3-(2-[F-18]fluoro-ethoxy)benzamide]
- Organ distribution of F-18 signal, adrenals ([1]; 2 min post i.v. injection): 7.57 % ID/g
- Organ distribution of F-18 signal, adrenals ([1]; 5 min post i.v. injection): 10.67 % ID/g
- Organ distribution of F-18 signal, adrenals ([1]; 30 min post i.v. injection): 4.49 % ID/g
- Organ distribution of F-18 signal, adrenals ([1]; 60 min post i.v. injection): 1.77 % ID/g
- Organ distribution of F-18 signal, adrenals ([1]; 240 min post i.v. injection): 1.03 % ID/g
- Organ distribution of F-18 signal, blood ([1]; 2 min post i.v. injection): 1.72 % ID/g
- Organ distribution of F-18 signal, blood ([1]; 5 min post i.v. injection): 2.12 % ID/g
- Organ distribution of F-18 signal, blood ([1]; 30 min post i.v. injection): 1.85 % ID/g
- Organ distribution of F-18 signal, blood ([1]; 60 min post i.v. injection): 1.32 % ID/g
- Organ distribution of F-18 signal, blood ([1]; 240 min post i.v. injection): 0.57 % ID/g
- Organ distribution of F-18 signal, brain ([1]; 2 min post i.v. injection): 5.15 % ID/g
- Organ distribution of F-18 signal, brain ([1]; 5 min post i.v. injection): 4.14 % ID/g
- Organ distribution of F-18 signal, brain ([1]; 30 min post i.v. injection): 1.66 % ID/g
- Organ distribution of F-18 signal, brain ([1]; 60 min post i.v. injection): 0.93 % ID/g
- Organ distribution of F-18 signal, brain ([1]; 240 min post i.v. injection): 0.42 % ID/g
- Organ distribution of F-18 signal, fat ([1]; 2 min post i.v. injection): 1.97 % ID/g
- Organ distribution of F-18 signal, fat ([1]; 5 min post i.v. injection): 2.44 % ID/g
- Organ distribution of F-18 signal, fat ([1]; 30 min post i.v. injection): 4.26 % ID/g
- Organ distribution of F-18 signal, fat ([1]; 60 min post i.v. injection): 2.38 % ID/g
- Organ distribution of F-18 signal, fat ([1]; 240 min post i.v. injection): 0.34 % ID/g
- Organ distribution of F-18 signal, femur ([1]; 2 min post i.v. injection): 1.95 % ID/g
- Organ distribution of F-18 signal, femur ([1]; 5 min post i.v. injection): 1.79 % ID/g
- Organ distribution of F-18 signal, femur ([1]; 30 min post i.v. injection): 1.05 % ID/g
- Organ distribution of F-18 signal, femur ([1]; 60 min post i.v. injection): 1.11 % ID/g
- Organ distribution of F-18 signal, femur ([1]; 240 min post i.v. injection): 3.06 % ID/g
- Organ distribution of F-18 signal, heart ([1]; 2 min post i.v. injection): 15.57 % ID/g
- Organ distribution of F-18 signal, heart ([1]; 5 min post i.v. injection): 8.25 % ID/g
- Organ distribution of F-18 signal, heart ([1]; 30 min post i.v. injection): 3.47 % ID/g
- Organ distribution of F-18 signal, heart ([1]; 60 min post i.v. injection): 2.07 % ID/g
- Organ distribution of F-18 signal, heart ([1]; 240 min post i.v. injection): 0.61 % ID/g
- Organ distribution of F-18 signal, intestine ([1]; 2 min post i.v. injection): 1.93 % ID/g
- Organ distribution of F-18 signal, intestine ([1]; 5 min post i.v. injection): 1.87 % ID/g
- Organ distribution of F-18 signal, intestine ([1]; 30 min post i.v. injection): 4.58 % ID/g
- Organ distribution of F-18 signal, intestine ([1]; 60 min post i.v. injection): 6.47 % ID/g
- Organ distribution of F-18 signal, intestine ([1]; 240 min post i.v. injection): 8.50 % ID/g
- Organ distribution of F-18 signal, kidney ([1]; 2 min post i.v. injection): 15.52 % ID/g
- Organ distribution of F-18 signal, kidney ([1]; 5 min post i.v. injection): 14.38 % ID/g
- Organ distribution of F-18 signal, kidney ([1]; 30 min post i.v. injection): 11.43 % ID/g
- Organ distribution of F-18 signal, kidney ([1]; 60 min post i.v. injection): 7.70 % ID/g
- Organ distribution of F-18 signal, kidney ([1]; 240 min post i.v. injection): 1.05 % ID/g
- Organ distribution of F-18 signal, liver ([1]; 2 min post i.v. injection): 6.35 % ID/g
- Organ distribution of F-18 signal, liver ([1]; 5 min post i.v. injection): 13.36 % ID/g
- Organ distribution of F-18 signal, liver ([1]; 30 min post i.v. injection): 8.75 % ID/g
- Organ distribution of F-18 signal, liver ([1]; 60 min post i.v. injection): 5.04 % ID/g
- Organ distribution of F-18 signal, liver ([1]; 240 min post i.v. injection): 1.44 % ID/g
- Organ distribution of F-18 signal, lung ([1]; 2 min post i.v. injection): 5.58 % ID/g
- Organ distribution of F-18 signal, lung ([1]; 5 min post i.v. injection): 4.05 % ID/g
- Organ distribution of F-18 signal, lung ([1]; 30 min post i.v. injection): 2.55 % ID/g
- Organ distribution of F-18 signal, lung ([1]; 60 min post i.v. injection): 1.66 % ID/g
- Organ distribution of F-18 signal, lung ([1]; 240 min post i.v. injection): 0.59 % ID/g
- Organ distribution of F-18 signal, muscle ([1]; 2 min post i.v. injection): 3.95 % ID/g
- Organ distribution of F-18 signal, muscle ([1]; 5 min post i.v. injection): 3.17 % ID/g
- Organ distribution of F-18 signal, muscle ([1]; 30 min post i.v. injection): 1.95 % ID/g
- Organ distribution of F-18 signal, muscle ([1]; 60 min post i.v. injection): 1.31 % ID/g
- Organ distribution of F-18 signal, muscle ([1]; 240 min post i.v. injection): 0.30 % ID/g
- Organ distribution of F-18 signal, pancreas ([1]; 2 min post i.v. injection): 4.96 % ID/g
- Organ distribution of F-18 signal, pancreas ([1]; 5 min post i.v. injection): 4.26 % ID/g
- Organ distribution of F-18 signal, pancreas ([1]; 30 min post i.v. injection): 2.21 % ID/g
- Organ distribution of F-18 signal, pancreas ([1]; 60 min post i.v. injection): 1.22 % ID/g
- Organ distribution of F-18 signal, pancreas ([1]; 240 min post i.v. injection): 0.32 % ID/g
- Organ distribution of F-18 signal, skin ([1]; 2 min post i.v. injection): 1.72 % ID/g
- Organ distribution of F-18 signal, skin ([1]; 5 min post i.v. injection): 2.15 % ID/g
- Organ distribution of F-18 signal, skin ([1]; 30 min post i.v. injection): 1.93 % ID/g
- Organ distribution of F-18 signal, skin ([1]; 60 min post i.v. injection): 1.29 % ID/g
- Organ distribution of F-18 signal, skin ([1]; 240 min post i.v. injection): 0.42 % ID/g
- Organ distribution of F-18 signal, spleen ([1]; 2 min post i.v. injection): 1.73 % ID/g
- Organ distribution of F-18 signal, spleen ([1]; 5 min post i.v. injection): 2.22 % ID/g
- Organ distribution of F-18 signal, spleen ([1]; 30 min post i.v. injection): 1.28 % ID/g
- Organ distribution of F-18 signal, spleen ([1]; 60 min post i.v. injection): 0.86 % ID/g
- Organ distribution of F-18 signal, spleen ([1]; 240 min post i.v. injection): 0.36 % ID/g
- Organ distribution of F-18 signal, stomach ([1]; 2 min post i.v. injection): 4.78 % ID/g
- Organ distribution of F-18 signal, stomach ([1]; 5 min post i.v. injection): 4.49 % ID/g
- Organ distribution of F-18 signal, stomach ([1]; 30 min post i.v. injection): 2.20 % ID/g
- Organ distribution of F-18 signal, stomach ([1]; 60 min post i.v. injection): 1.53 % ID/g
- Organ distribution of F-18 signal, stomach ([1]; 240 min post i.v. injection): 0.82 % ID/g
- Organ distribution of F-18 signal, tail ([1]; 2 min post i.v. injection): 8.94 % ID/g
- Organ distribution of F-18 signal, tail ([1]; 5 min post i.v. injection): 9.06 % ID/g
- Organ distribution of F-18 signal, tail ([1]; 30 min post i.v. injection): 4.73 % ID/g
- Organ distribution of F-18 signal, tail ([1]; 60 min post i.v. injection): 2.57 % ID/g
- Organ distribution of F-18 signal, tail ([1]; 240 min post i.v. injection): 1.98 % ID/g
- Organ distribution of F-18 signal, testicle ([1]; 2 min post i.v. injection): 1.19 % ID/g
- Organ distribution of F-18 signal, testicle ([1]; 5 min post i.v. injection): 1.58 % ID/g
- Organ distribution of F-18 signal, testicle ([1]; 30 min post i.v. injection): 1.44 % ID/g
- Organ distribution of F-18 signal, testicle ([1]; 60 min post i.v. injection): 1.84 % ID/g
- Organ distribution of F-18 signal, testicle ([1]; 240 min post i.v. injection): 0.38 % ID/g
- Organ distribution of F-18 signal, thyroid ([1]; 2 min post i.v. injection): 3.87 % ID/g
- Organ distribution of F-18 signal, thyroid ([1]; 5 min post i.v. injection): 3.67 % ID/g
- Organ distribution of F-18 signal, thyroid ([1]; 30 min post i.v. injection): 1.78 % ID/g
- Organ distribution of F-18 signal, thyroid ([1]; 60 min post i.v. injection): 1.04 % ID/g
- Organ distribution of F-18 signal, thyroid ([1]; 240 min post i.v. injection): 0.56 % ID/g
- autoradiographical analysis of binding to cryosections from cortex [2]: Specific binding in plaque-rich regions of AD samples
